# Experimental data taken from patent publication US10322111B2, “Chemokine receptor binding heterocyclic compounds with enhanced efficacy” (Genzyme Corporation, priority 2001, dated 2019).
# Like-named read-outs stand apart in the source and are kept apart here.
# Tested on: CFU-GM, BFU-E and CFU-GEMM progenitor cells
# Conditions: 80 μg/kg s.c.
structure (smiles),measurement,setting,value
"c1cc(CN2CCCNCCNCCCNCC2)ccc1CN1CCCNCCNCCCNCC1 [AMD3100, 1,1′-[1,4-phenylene-bis(methylene)]-bis-1,4,8,11-tetraazacyclotetradecane]","Absolute # of Progenitors per ML, BFU-E","P1, T = 1 h after injection",674 per ML
same,"Absolute # of Progenitors per ML, CFU-GEMM","P1, T = 1 h after injection",264 per ML
same,"Absolute # of Progenitors per ML, CFU-GM","P1, T = 1 h after injection",1259 per ML
same,"fold change from T=0, progenitors BFU-E, methylcellulose culture","P1, T = 1 h after injection",2.58 fold
same,"fold change from T=0, progenitors CFU-GEMM, methylcellulose culture","P1, T = 1 h after injection",2.07 fold
same,"fold change from T=0, progenitors CFU-GM, methylcellulose culture","P1, T = 1 h after injection",5.09 fold
same,"Absolute # of Progenitors per ML, BFU-E","P1, T = 3 h after injection",1340 per ML
same,"Absolute # of Progenitors per ML, CFU-GEMM","P1, T = 3 h after injection",540 per ML
same,"Absolute # of Progenitors per ML, CFU-GM","P1, T = 3 h after injection",1760 per ML
same,"fold change from T=0, progenitors BFU-E, methylcellulose culture","P1, T = 3 h after injection",5.13 fold
same,"fold change from T=0, progenitors CFU-GEMM, methylcellulose culture","P1, T = 3 h after injection",4.25 fold
same,"fold change from T=0, progenitors CFU-GM, methylcellulose culture","P1, T = 3 h after injection",7.12 fold
same,"Absolute # of Progenitors per ML, BFU-E","P1, T = 6 h after injection",2388 per ML
same,"Absolute # of Progenitors per ML, CFU-GEMM","P1, T = 6 h after injection",949 per ML
same,"Absolute # of Progenitors per ML, CFU-GM","P1, T = 6 h after injection",3624 per ML
same,"fold change from T=0, progenitors BFU-E, methylcellulose culture","P1, T = 6 h after injection",9.14 fold
same,"fold change from T=0, progenitors CFU-GEMM, methylcellulose culture","P1, T = 6 h after injection",7.47 fold
same,"fold change from T=0, progenitors CFU-GM, methylcellulose culture","P1, T = 6 h after injection",14.66 fold
same,"Absolute # of Progenitors per ML, BFU-E","P1, T = 9 h after injection",1418 per ML
same,"Absolute # of Progenitors per ML, CFU-GEMM","P1, T = 9 h after injection",335 per ML
same,"Absolute # of Progenitors per ML, CFU-GM","P1, T = 9 h after injection",1547 per ML
same,"fold change from T=0, progenitors BFU-E, methylcellulose culture","P1, T = 9 h after injection",5.43 fold
same,"fold change from T=0, progenitors CFU-GEMM, methylcellulose culture","P1, T = 9 h after injection",2.64 fold
same,"fold change from T=0, progenitors CFU-GM, methylcellulose culture","P1, T = 9 h after injection",6.26 fold
same,"Absolute # of Progenitors per ML, BFU-E","P1, T = 24 h after injection",278 per ML
same,"Absolute # of Progenitors per ML, CFU-GEMM","P1, T = 24 h after injection",142 per ML
same,"Absolute # of Progenitors per ML, CFU-GM","P1, T = 24 h after injection",271 per ML
same,"fold change from T=0, progenitors BFU-E, methylcellulose culture","P1, T = 24 h after injection",1.06 fold
same,"fold change from T=0, progenitors CFU-GEMM, methylcellulose culture","P1, T = 24 h after injection",1.12 fold
same,"fold change from T=0, progenitors CFU-GM, methylcellulose culture","P1, T = 24 h after injection",1.10 fold
same,"Absolute # of Progenitors per ML, BFU-E","P2, T = 1 h after injection",608 per ML
same,"Absolute # of Progenitors per ML, CFU-GEMM","P2, T = 1 h after injection",272 per ML
same,"Absolute # of Progenitors per ML, CFU-GM","P2, T = 1 h after injection",1455 per ML
same,"fold change from T=0, progenitors BFU-E, methylcellulose culture","P2, T = 1 h after injection",1.48 fold
same,"fold change from T=0, progenitors CFU-GEMM, methylcellulose culture","P2, T = 1 h after injection",2.26 fold
same,"fold change from T=0, progenitors CFU-GM, methylcellulose culture","P2, T = 1 h after injection",5.33 fold
same,"Absolute # of Progenitors per ML, BFU-E","P2, T = 3 h after injection",809 per ML
same,"Absolute # of Progenitors per ML, CFU-GEMM","P2, T = 3 h after injection",418 per ML
same,"Absolute # of Progenitors per ML, CFU-GM","P2, T = 3 h after injection",4646 per ML
same,"fold change from T=0, progenitors BFU-E, methylcellulose culture","P2, T = 3 h after injection",1.98 fold
same,"fold change from T=0, progenitors CFU-GEMM, methylcellulose culture","P2, T = 3 h after injection",3.47 fold
same,"fold change from T=0, progenitors CFU-GM, methylcellulose culture","P2, T = 3 h after injection",17.02 fold
same,"Absolute # of Progenitors per ML, BFU-E","P2, T = 6 h after injection",1502 per ML
same,"Absolute # of Progenitors per ML, CFU-GEMM","P2, T = 6 h after injection",1126 per ML
same,"Absolute # of Progenitors per ML, CFU-GM","P2, T = 6 h after injection",6540 per ML
same,"fold change from T=0, progenitors BFU-E, methylcellulose culture","P2, T = 6 h after injection",3.67 fold
same,"fold change from T=0, progenitors CFU-GEMM, methylcellulose culture","P2, T = 6 h after injection",9.35 fold
same,"fold change from T=0, progenitors CFU-GM, methylcellulose culture","P2, T = 6 h after injection",23.96 fold
same,"Absolute # of Progenitors per ML, BFU-E","P2, T = 9 h after injection",1886 per ML
same,"Absolute # of Progenitors per ML, CFU-GEMM","P2, T = 9 h after injection",854 per ML
same,"Absolute # of Progenitors per ML, CFU-GM","P2, T = 9 h after injection",3416 per ML
same,"fold change from T=0, progenitors BFU-E, methylcellulose culture","P2, T = 9 h after injection",4.61 fold
same,"fold change from T=0, progenitors CFU-GEMM, methylcellulose culture","P2, T = 9 h after injection",7.09 fold
same,"fold change from T=0, progenitors CFU-GM, methylcellulose culture","P2, T = 9 h after injection",12.51 fold
same,"Absolute # of Progenitors per ML, BFU-E","P2, T = 24 h after injection",768 per ML
same,"Absolute # of Progenitors per ML, CFU-GEMM","P2, T = 24 h after injection",316 per ML
same,"Absolute # of Progenitors per ML, CFU-GM","P2, T = 24 h after injection",521 per ML
same,"fold change from T=0, progenitors BFU-E, methylcellulose culture","P2, T = 24 h after injection",1.88 fold
same,"fold change from T=0, progenitors CFU-GEMM, methylcellulose culture","P2, T = 24 h after injection",2.62 fold
same,"fold change from T=0, progenitors CFU-GM, methylcellulose culture","P2, T = 24 h after injection",1.91 fold
same,"Absolute # of Progenitors per ML, BFU-E","P3, T = 1 h after injection",806 per ML
same,"Absolute # of Progenitors per ML, CFU-GEMM","P3, T = 1 h after injection",312 per ML
same,"Absolute # of Progenitors per ML, CFU-GM","P3, T = 1 h after injection",1040 per ML
same,"fold change from T=0, progenitors BFU-E, methylcellulose culture","P3, T = 1 h after injection",2.30 fold
same,"fold change from T=0, progenitors CFU-GEMM, methylcellulose culture","P3, T = 1 h after injection",2.22 fold
same,"fold change from T=0, progenitors CFU-GM, methylcellulose culture","P3, T = 1 h after injection",3.70 fold
same,"Absolute # of Progenitors per ML, BFU-E","P3, T = 3 h after injection",915 per ML
same,"Absolute # of Progenitors per ML, CFU-GEMM","P3, T = 3 h after injection",610 per ML
same,"Absolute # of Progenitors per ML, CFU-GM","P3, T = 3 h after injection",4233 per ML
same,"fold change from T=0, progenitors BFU-E, methylcellulose culture","P3, T = 3 h after injection",2.61 fold
same,"fold change from T=0, progenitors CFU-GEMM, methylcellulose culture","P3, T = 3 h after injection",4.34 fold
same,"fold change from T=0, progenitors CFU-GM, methylcellulose culture","P3, T = 3 h after injection",15.07 fold
same,"Absolute # of Progenitors per ML, BFU-E","P3, T = 6 h after injection",1593 per ML
same,"Absolute # of Progenitors per ML, CFU-GEMM","P3, T = 6 h after injection",916 per ML
same,"Absolute # of Progenitors per ML, CFU-GM","P3, T = 6 h after injection",5895 per ML
same,"fold change from T=0, progenitors BFU-E, methylcellulose culture","P3, T = 6 h after injection",4.54 fold
same,"fold change from T=0, progenitors CFU-GEMM, methylcellulose culture","P3, T = 6 h after injection",6.52 fold
same,"fold change from T=0, progenitors CFU-GM, methylcellulose culture","P3, T = 6 h after injection",20.99 fold
same,"Absolute # of Progenitors per ML, BFU-E","P3, T = 9 h after injection",1302 per ML
same,"Absolute # of Progenitors per ML, CFU-GEMM","P3, T = 9 h after injection",347 per ML
same,"Absolute # of Progenitors per ML, CFU-GM","P3, T = 9 h after injection",2647 per ML
same,"fold change from T=0, progenitors BFU-E, methylcellulose culture","P3, T = 9 h after injection",3.71 fold
same,"fold change from T=0, progenitors CFU-GEMM, methylcellulose culture","P3, T = 9 h after injection",2.47 fold
same,"fold change from T=0, progenitors CFU-GM, methylcellulose culture","P3, T = 9 h after injection",9.42 fold
same,"Absolute # of Progenitors per ML, BFU-E","P3, T = 24 h after injection",402 per ML
same,"Absolute # of Progenitors per ML, CFU-GEMM","P3, T = 24 h after injection",97 per ML
same,"Absolute # of Progenitors per ML, CFU-GM","P3, T = 24 h after injection",402 per ML
same,"fold change from T=0, progenitors BFU-E, methylcellulose culture","P3, T = 24 h after injection",1.14 fold
same,"fold change from T=0, progenitors CFU-GEMM, methylcellulose culture","P3, T = 24 h after injection",0.69 fold
